Active and inactive are the calls of the source.
Tests used:
[1] = target: FAD-linked sulfhydryl oxidase ALR (Homo sapiens, UniProt P55789); assay: ALR-catalysed DTT oxidation blockers – biochemical, H2O2 detection, luminescence, cherry-pick, dose response (AID 493248)
[2] = target: T1, Replicative DNA helicase DnaB (Mycobacterium tuberculosis, UniProt P9WMR3); assay: DnaB intein splicing inhibitors, dose response, biochemical, cell-free fluorescence (AID 449749); type: functional
T1 sequence (P9WMR3 whole entry): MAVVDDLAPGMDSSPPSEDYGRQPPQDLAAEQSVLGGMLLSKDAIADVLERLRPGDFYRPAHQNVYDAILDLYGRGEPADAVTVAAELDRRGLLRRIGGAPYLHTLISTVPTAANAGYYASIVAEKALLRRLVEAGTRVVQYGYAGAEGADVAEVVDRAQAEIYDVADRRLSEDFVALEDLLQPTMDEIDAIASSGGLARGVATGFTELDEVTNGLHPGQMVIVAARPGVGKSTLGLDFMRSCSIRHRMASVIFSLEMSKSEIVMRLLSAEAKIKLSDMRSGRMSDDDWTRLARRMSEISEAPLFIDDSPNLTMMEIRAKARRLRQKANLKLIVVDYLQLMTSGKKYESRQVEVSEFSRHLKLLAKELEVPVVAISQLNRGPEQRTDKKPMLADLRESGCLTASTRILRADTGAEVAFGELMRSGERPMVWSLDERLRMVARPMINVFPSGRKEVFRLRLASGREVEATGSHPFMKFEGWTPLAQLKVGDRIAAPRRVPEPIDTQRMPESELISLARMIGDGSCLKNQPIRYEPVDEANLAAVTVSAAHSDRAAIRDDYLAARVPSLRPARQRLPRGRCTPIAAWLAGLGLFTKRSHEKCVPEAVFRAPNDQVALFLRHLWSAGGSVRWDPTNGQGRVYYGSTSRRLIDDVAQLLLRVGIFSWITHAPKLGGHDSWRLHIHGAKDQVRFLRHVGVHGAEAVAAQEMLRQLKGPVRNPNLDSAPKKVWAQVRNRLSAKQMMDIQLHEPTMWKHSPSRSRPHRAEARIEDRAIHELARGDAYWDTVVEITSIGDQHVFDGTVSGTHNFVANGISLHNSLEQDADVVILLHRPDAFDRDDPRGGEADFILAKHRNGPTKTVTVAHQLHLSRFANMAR

Protein RecA = target: T2, Protein RecA (Mycobacterium tuberculosis, UniProt P9WHJ3); assay: Fluorescence Cell-Free Homogeneous Dose Retest to Identify Inhibitors of RecA-Intein Splicing Activity. [Related pubchem assays (depositor defined):AID2097, AID2223, AID489010, AID492950]; type: functional
T2 sequence (P9WHJ3 whole entry): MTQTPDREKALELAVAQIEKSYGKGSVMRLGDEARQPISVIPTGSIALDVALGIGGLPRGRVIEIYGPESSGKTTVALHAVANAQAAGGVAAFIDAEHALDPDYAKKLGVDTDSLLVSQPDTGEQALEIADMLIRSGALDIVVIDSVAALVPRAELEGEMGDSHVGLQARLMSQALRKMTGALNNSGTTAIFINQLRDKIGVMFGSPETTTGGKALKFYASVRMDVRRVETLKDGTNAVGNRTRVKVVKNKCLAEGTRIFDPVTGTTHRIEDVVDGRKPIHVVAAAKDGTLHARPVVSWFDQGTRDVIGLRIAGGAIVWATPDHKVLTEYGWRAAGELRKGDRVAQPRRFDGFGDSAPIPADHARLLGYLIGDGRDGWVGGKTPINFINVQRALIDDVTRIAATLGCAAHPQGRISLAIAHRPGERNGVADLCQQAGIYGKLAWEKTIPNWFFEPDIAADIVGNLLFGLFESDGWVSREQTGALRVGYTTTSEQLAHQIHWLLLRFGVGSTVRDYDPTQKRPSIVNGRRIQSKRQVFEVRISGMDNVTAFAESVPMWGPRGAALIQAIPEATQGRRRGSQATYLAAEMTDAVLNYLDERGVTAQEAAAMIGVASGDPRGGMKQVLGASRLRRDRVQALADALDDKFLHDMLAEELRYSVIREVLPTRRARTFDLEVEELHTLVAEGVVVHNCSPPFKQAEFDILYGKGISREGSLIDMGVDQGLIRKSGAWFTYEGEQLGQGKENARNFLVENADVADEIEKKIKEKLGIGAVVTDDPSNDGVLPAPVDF

[3] = Luminescence Cell-Based Dose Retest to Confirm Inhibitors of Cancer Stem Cells. [Related pubchem assays (depositor defined):AID2717, AID2721]; type: functional; details: Homo sapiens
INS1 = assay: INS-1E survival protection against cytokine death – cell-based, luminescence, retest, dose response (AID 449756); type: functional; details: Rattus norvegicus;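 further: cell death triggered by IL-1 beta plus TNF-alpha plus IFN-gamma mixture; protective hits raise ATP signal compared with cytokine alone wells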
Cytochrome P450 2D6 = Cytochrome P450 2D6 (Homo sapiens, UniProt P10635);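 further: CYP2D6 member of a cytochrome P450 panel assay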
[4] = target: T3, RNA-binding protein pos-1 (Caenorhabditis elegans, UniProt G5EF15); assay: disruptors of C. elegans POS-1 RNA interaction – biochemical, fluorescence polarization, dose response (AID 1964);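 further: purified POS-1 fused to maltose binding protein made in E. coli; potency of compounds blocking POS-1 binding to fluorescent RNA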
T3 sequence (G5EF15 whole entry): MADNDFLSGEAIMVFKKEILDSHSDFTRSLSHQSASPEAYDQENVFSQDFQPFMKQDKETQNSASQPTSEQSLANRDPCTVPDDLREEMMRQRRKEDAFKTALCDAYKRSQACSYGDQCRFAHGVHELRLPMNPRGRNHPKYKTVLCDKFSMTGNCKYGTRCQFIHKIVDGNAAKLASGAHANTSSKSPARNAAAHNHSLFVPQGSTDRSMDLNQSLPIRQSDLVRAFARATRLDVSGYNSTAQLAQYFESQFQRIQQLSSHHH

Cytochrome P450 2C19 = Cytochrome P450 2C19 (Homo sapiens, UniProt P33261); assay: Cytochrome panel assay with activity outcomes. Panel member name: p450-cyp2c19 Compounds with AC50 equal or less than 10 uM are considered active; type: functional; details: read-out: AC50
Cytochrome P450 1A2 = target: T4, Cytochrome P450 1A2 (Homo sapiens, UniProt P05177);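 further: PubChem cytochrome P450 panel assay, CYP1A2 panel member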
T4 sequence (P05177 whole entry): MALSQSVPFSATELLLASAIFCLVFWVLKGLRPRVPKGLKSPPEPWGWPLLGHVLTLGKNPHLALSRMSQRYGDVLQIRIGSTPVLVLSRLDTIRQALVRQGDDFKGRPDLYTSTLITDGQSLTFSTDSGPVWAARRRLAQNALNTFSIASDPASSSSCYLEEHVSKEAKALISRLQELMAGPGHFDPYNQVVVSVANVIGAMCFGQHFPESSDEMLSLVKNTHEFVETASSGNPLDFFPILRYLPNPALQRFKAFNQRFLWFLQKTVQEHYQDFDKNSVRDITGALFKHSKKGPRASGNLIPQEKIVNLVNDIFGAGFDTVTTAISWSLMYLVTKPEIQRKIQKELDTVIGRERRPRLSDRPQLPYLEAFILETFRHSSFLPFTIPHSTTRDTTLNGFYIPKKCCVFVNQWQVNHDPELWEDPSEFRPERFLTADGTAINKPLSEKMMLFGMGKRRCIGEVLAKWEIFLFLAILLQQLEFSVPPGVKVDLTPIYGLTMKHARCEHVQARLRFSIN

Cytochrome P450 2C9 = Cytochrome P450 2C9 (Homo sapiens, UniProt P11712)
Cytochrome P450 3A4 = Cytochrome P450 3A4 (Homo sapiens, UniProt P08684);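 further: CYP3A4 tested as one member of a cytochrome P450 panel screen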
[5] = system: Streptococcus sp. 'group A'; assay: Streptococcus pyogenes SK(-)GAS viability under kanamycin – luminescence, BacTiterGlo, confirmation, counter-screen for streptokinase expression inhibitor project, dose response (AID 1900); type: functional, organism-based
Streptokinase A = target: T5, Streptokinase A (Streptococcus pyogenes serotype M1, UniProt P10520); assay: viability-normalized secreted streptokinase activity reduction – plasminogen activation absorbance, OD405, dose response (AID 1914); type: functional, Streptococcus pyogenes M1 GAS;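 further: secreted streptokinase activity via plasminogen activation per viability signal from cell pellet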
T5 sequence (P10520 whole entry): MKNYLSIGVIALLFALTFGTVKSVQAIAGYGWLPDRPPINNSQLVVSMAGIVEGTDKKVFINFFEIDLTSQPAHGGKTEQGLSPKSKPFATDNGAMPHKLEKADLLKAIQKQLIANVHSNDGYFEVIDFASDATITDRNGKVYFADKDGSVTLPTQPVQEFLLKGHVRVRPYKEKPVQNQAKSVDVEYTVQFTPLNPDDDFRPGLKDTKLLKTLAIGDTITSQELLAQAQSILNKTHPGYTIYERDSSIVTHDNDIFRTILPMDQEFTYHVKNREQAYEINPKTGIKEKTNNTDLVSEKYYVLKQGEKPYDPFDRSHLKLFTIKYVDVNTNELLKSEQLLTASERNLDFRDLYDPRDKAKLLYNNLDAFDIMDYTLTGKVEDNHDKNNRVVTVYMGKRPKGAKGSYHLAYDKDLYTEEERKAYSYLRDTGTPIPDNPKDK

Streptococcus = assay: GAS UMAA2166 growth inhibition – luminescence, BacTiterGlo, counter-screen for streptokinase expression inhibitor project, dose response (AID 1915); type: functional, organism-based;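 further: potency for reduction of bacterial viability or growth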

Sequence of FAD-linked sulfhydryl oxidase ALR (P55789 whole entry): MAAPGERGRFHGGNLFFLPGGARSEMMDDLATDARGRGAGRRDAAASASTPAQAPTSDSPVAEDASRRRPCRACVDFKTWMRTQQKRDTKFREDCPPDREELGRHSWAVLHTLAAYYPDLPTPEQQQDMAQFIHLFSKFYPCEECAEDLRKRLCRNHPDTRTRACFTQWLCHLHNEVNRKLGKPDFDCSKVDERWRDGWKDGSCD
Sequence of Cytochrome P450 2D6 (P10635 whole entry, the tested form may be a part): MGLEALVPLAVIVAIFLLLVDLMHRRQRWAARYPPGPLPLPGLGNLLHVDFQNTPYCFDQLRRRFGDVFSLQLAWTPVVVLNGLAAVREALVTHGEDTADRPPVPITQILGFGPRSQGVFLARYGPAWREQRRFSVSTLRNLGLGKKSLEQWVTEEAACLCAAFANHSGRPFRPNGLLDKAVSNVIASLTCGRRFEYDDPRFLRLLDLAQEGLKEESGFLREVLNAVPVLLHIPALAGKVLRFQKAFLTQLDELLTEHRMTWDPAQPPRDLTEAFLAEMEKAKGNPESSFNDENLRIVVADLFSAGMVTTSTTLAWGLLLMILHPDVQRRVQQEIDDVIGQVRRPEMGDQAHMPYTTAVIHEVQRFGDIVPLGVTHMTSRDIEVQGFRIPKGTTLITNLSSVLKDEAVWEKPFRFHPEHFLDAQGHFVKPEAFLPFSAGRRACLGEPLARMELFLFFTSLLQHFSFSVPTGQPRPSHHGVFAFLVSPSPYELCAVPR
Sequence of Cytochrome P450 2C9 (P11712 whole entry): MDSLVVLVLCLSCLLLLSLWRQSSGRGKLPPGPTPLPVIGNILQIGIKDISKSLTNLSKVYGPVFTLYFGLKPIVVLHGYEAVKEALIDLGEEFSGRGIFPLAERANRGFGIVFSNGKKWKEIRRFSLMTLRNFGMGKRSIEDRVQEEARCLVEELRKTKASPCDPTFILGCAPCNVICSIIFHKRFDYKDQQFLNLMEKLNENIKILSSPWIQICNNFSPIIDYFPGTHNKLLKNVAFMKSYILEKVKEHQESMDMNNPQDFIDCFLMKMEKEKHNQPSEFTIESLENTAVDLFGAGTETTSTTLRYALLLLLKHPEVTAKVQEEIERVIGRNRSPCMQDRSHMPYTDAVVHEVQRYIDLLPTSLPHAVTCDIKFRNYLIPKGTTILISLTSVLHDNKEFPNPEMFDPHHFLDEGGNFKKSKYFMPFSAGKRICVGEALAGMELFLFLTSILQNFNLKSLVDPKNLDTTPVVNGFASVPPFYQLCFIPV
Sequence of Cytochrome P450 3A4 (P08684 whole entry): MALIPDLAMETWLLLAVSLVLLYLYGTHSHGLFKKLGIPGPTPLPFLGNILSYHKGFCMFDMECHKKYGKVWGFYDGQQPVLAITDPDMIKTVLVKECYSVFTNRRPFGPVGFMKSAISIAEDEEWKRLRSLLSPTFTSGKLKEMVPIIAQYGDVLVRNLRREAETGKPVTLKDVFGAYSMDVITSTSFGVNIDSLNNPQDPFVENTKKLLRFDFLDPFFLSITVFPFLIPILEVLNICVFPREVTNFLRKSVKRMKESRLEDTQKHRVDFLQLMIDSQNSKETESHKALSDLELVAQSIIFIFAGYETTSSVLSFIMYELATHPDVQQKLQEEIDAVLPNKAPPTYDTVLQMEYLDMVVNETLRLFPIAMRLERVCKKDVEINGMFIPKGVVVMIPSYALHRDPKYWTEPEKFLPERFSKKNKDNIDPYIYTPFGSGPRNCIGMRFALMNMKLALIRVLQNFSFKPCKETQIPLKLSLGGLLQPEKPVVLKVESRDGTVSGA
Sequence of Cytochrome P450 2C19 (P33261 whole entry): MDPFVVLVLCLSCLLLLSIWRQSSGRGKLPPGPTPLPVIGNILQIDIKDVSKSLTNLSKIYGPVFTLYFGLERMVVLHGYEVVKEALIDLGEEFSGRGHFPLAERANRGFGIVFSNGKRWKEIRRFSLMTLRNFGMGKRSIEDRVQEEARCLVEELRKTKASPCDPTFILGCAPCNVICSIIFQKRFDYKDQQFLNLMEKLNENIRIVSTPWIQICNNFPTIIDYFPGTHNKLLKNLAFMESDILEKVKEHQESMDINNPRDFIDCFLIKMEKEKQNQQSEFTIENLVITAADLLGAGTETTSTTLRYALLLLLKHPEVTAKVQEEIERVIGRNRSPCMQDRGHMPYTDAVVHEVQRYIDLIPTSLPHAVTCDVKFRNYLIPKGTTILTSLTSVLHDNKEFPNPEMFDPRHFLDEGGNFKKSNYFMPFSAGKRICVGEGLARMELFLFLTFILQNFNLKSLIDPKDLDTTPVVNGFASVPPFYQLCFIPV

SMILES: COc1ccc2[nH]c(N3CCCC3)nc2c1
- AC50 [1]: 6.11 µM (active)

SMILES: CCCCCOP(=O)(OCCCCC)C1(NS(=O)(=O)c2ccccc2)C=CC(=O)c2ccccc21 (configuration not stated)
- AC50 [2]: 2.96 µM (active)
- EC50 (Protein RecA): 2.69 µM (active)

SMILES: Cc1ccccc1CNc1ccc(C(CC(N)=O)NC(=O)c2ccc(Br)cc2)cc1[N+](=O)[O-] (configuration not stated)
- AC50 [3]: 986 nM (active)
- AC50 (INS1): 14.9 µM (active)

SMILES: COc1ccc(C(=O)NCC(=O)OCc2cccc(Br)c2)cc1
- AC50 (Cytochrome P450 2D6): 15.8 µM (inconclusive)

SMILES: O=C1NC(=O)N(c2cccc(F)c2)C(=O)/C1=C/c1c[nH]c2ccccc12
- EC50 [4]: > 300 µM (not active)

SMILES: CN(C)S(=O)(=O)c1ccc(C(=O)N2CCN=C2SCc2cccnc2)cc1
- AC50 [1]: 0.017 µM (active)

SMILES: Cc1nc2ccccc2n1CC(=O)N/N=C\C=C\c1ccccc1
- AC50 (Cytochrome P450 2D6): 35.5 µM (inconclusive)

SMILES: CC(CO)Nc1nc(SCc2ccccc2)nc2sc3c(c12)CCC3 (configuration not stated)
- AC50 (Cytochrome P450 2D6): 12.6 µM (inconclusive)

SMILES: CN(C)S(=O)(=O)c1cccc(-c2cn3cccnc3n2)c1
- AC50 [1]: 0.278 µM (active)

SMILES: COc1ccc(C(C(=O)Nc2ccc(F)cc2)N(C(=O)Cn2nnc3ccccc32)C2CC2)cc1 (configuration not stated)
- AC50 (Cytochrome P450 2C19): 10 µM (inconclusive)
- AC50 (Cytochrome P450 2D6): 28.2 µM (inconclusive)

SMILES: COC(=O)c1cc(NS(=O)(=O)c2ccc(N3CCCCCC3)c([N+](=O)[O-])c2)cc(C(=O)OC)c1
- AC50 (Cytochrome P450 2D6): 12.6 µM (inconclusive)
- AC50 (Cytochrome P450 1A2): 14.1 µM (inconclusive)

SMILES: O=c1[nH]cc(O)c(=O)[nH]1
- AC50 [2]: 7.97 µM (active)
- EC50 (Protein RecA): 9.27 µM (active)

SMILES: CCNc1ccc(S(=O)(=O)N(C)C)cc1NCC(=O)Nc1ccccc1Cl
- AC50 [1]: 5.58 µM (active)

SMILES: Cc1ccc(C2C(C#N)=C(N)Oc3[nH]nc(-c4cccs4)c32)s1 (configuration not stated)
- AC50 [2]: 1.54 µM (active)
- EC50 (Protein RecA): 1.82 µM (active)

SMILES: O=C(CCN1C(=O)/C(=C/c2cccs2)SC1=S)Nc1ccc(C(=O)O)c(O)c1
- AC50 [2]: 5.23 µM (active)
- EC50 (Protein RecA): 13.3 µM (active)

SMILES: Cc1n[nH]c2c1C(c1c[nH]nc1-c1ccc(F)cc1)C(C#N)=C(N)O2 (configuration not stated)
- AC50 [2]: 12.1 µM (active)
- EC50 (Protein RecA): 3.88 µM (active)

SMILES: O=C(CN1CCN(S(=O)(=O)c2ccc(Cl)cc2)CC1)Nc1ccc2c(c1)OCO2
- AC50 [2]: 55.9 µM (active)
- EC50 (Protein RecA): > 380 µM (inactive)
- AC50 (Cytochrome P450 1A2): 15.8 µM (inconclusive)

SMILES: c1cc2cc(c1)C[n+]1ccc(c3ccccc31)NCc1ccc(cc1)CNc1cc[n+](c3ccccc13)C2
- AC50 (Cytochrome P450 2D6): 39.8 µM (inconclusive)

SMILES: CC(C)c1cccc2nc3c(c([Si](C)(C)C)c12)Cn1c-3cccc1=O
- AC50 (Cytochrome P450 2D6): 39.8 µM (inconclusive)
- AC50 (Cytochrome P450 2C9): 39.8 µM (inconclusive)

SMILES: COc1ccc(Cn2c(S)nnc2-c2ccc(OC)cc2)cc1
- AC50 [1]: 0.009 µM (active)

SMILES: Cc1cc(C)n(-c2ccc([N+](=O)[O-])cc2)n1
- AC50 [2]: > 380 µM (inactive)
- EC50 (Protein RecA): > 380 µM (inactive)

SMILES: N#Cc1cccc(NC(=O)N2CCC3(CC2)CCN(C(=O)c2csnn2)CC3)c1
- AC50 (Cytochrome P450 2D6): 15.8 µM (inconclusive)
- AC50 (Cytochrome P450 3A4): 20 µM (inconclusive)

SMILES: COc1ccccc1CNc1ncnc2ccc(-c3c(C)noc3C)cc12
- AC50 (Cytochrome P450 2C19): 31.6 µM (inconclusive)
- AC50 (Cytochrome P450 2D6): 39.8 µM (inconclusive)
- AC50 (Cytochrome P450 2C9): 0.794 µM (inconclusive)

SMILES: COc1ccc(NC2CCCN(C(=O)CCc3ccncc3)C2)cc1OC (configuration not stated)
- AC50 [1]: 4.75 µM (active)

SMILES: Cn1sc(NC(=O)c2ccc(Cl)cc2)nc1=O
- AC50 [1]: 1.88 µM (active)

SMILES: COc1ccc(C2CC(c3cccs3)=NN2C(=O)CSC2=NCCS2)cc1 (configuration not stated)
- EC50 [5]: 21.5 µM (active)
- EC50 (Streptokinase A): > 150 µM (not active)
- EC50 (Streptococcus): > 150 µM (not active)
- AC50 [2]: 10.9 µM (active)
- EC50 (Protein RecA): 5.31 µM (active)

SMILES: CCNc1ncc2nc(-c3cccs3)c(=O)n(C[C@H]3CCCO3)c2n1
- AC50 (Cytochrome P450 2D6): 0.2 µM (inconclusive)
- AC50 (Cytochrome P450 3A4): 7.94 µM (inconclusive)

SMILES: Cc1nc(C#N)c(N/N=C/c2cccc(Cl)c2)o1
- AC50 [1]: 1.66 µM (active)

SMILES: O=C(OCc1nnc(-c2ccccc2)o1)c1ccc2c(c1)OCCO2
- AC50 (Cytochrome P450 2D6): 28.2 µM (inconclusive)

SMILES: Oc1ccc(Br)cc1-c1cc(-c2ccc(Cl)cc2)[nH]n1
- AC50 (INS1): 4.87 µM (active)

SMILES: CCOC(=O)Cc1c(O)oc2nnc(C)c-2c1C
- AC50 [2]: > 380 µM (inactive)
- EC50 (Protein RecA): 19.1 µM (active)

Reference: ChEMBL document CHEMBL1201862, “PubChem BioAssay data set” (2004)
